Experimental data as given in patent publication US5532227A, “Tetracyclines including non-antimicrobial chemically-modified tetracyclines inhibit excessive glycosylation of different types of collagen and other proteins during diabetes” (The Research Foundation of State University of New York, priority 1994, dated 1996).

Tests used:
skin collagen [1] = assay: Glycosylation of diabetic rat skin collagen (Example V, Table IV); assay type: in vivo, Sprague-Dawley rat; conditions: 5 mg daily oral gavage, 21 days; for mM Fructosamine/mg protein (Mean ± SE): NDC 0.027, untreated diabetic 0.377; for Reduction of glycosylation in treated diabetics (%): vs untreated diabetic control
Protocol: (§1) All animals were weighed weekly.
The subcutaneous muscle layer was removed leaving essentially the dermis. The dermis (skin connective tissue) samples were minced, then homogenized in phosphate buffered saline (4° C.). Following centrifugation (at 9000 rpm, 4° C., 30 min.) of the homogenates, the supernatants were discarded. The pellets were repeatedly washed, then resuspended and extracted at 4° C. overnight in chloroform/methanol to remove lipids. The de-lipidized tissue samples were then washed in 100% methanol, then in 50% methanol. Following the methanol washes, the samples were washed with HEPES buffer (pH 7.4). The skin connective tissue samples (100 mg of each sample) were incubated at 37° C. (24 hours) with chromatographically-purified bacterial collagenase. After 24 hours the reaction mixture was centrifuged at 7000 rpm, room temperature for 30 minutes. Following centrifugation, the supernatants containing the digested collagen were collected. Aliquots of the supernatants were analyzed for glycosylated collagen using a modification of the Isolab Glyco-PROBE™ GSP assay kit. The assay is designed to measure glucose bound to protein which was then converted by Amadori rearrangement to fructosamine. For purposes of the present invention, the sample total protein was increased to compensate for low levels of glycosylated collagen compared to glycosylated serum proteins.

serum proteins [2] = assay: Serum fructosamine (glycosylated serum protein), 14 weeks doxycycline (Example II, Table III); assay type: in vivo; conditions: 2 mg/rat/day oral
Protocol: Three groups of rats were established: a non-diabetic control group, an untreated streptozotocin-diabetic group and a streptozotocin-diabetic group treated orally with 2 mg doxycycline/rat/day over the 14-week time period. At the end of the 14 weeks, blood samples were collected from each rat arid the serum was measured for glycosylated protein using an assay which is based on the ability of glucose to non-enzymatically bind to proteins by a ketoamine crosslink to form fructosamine. During the assay, the glucose bound to the protein through a ketoamine chemical bond reduces a tetrazolium dye under alkaline conditions producing a color change which is measured spectrophotometrically. Armbruster, Clin. Chem., 33: 2153-2163 (1987). A fructosamine assay kit is available from Isolab Inc., Akron, Ohio 44321.
In particular, the serum samples were centrifuged to remove lipids. The clarified serum samples were treated with a reagent to remove ascorbic acid and other interfering substances. The treated Serum samples were then incubated for a fixed period of time, with the fructosamine-bicarbonate reagent (tetrazolium salt), and absorbance was measured at a wavelength of 500 nm in a spectrophotometer. The data was analyzed statistically.

serum protein = assay: Glycosylated serum proteins in diabetic rats (Example IV, FIG. 5); assay type: in vivo, Sprague-Dawley rat; conditions: 5 mg daily oral gavage, 21 days; effect p<0.05
Excerpt: (Control vs. Diabetic p<0.01, Diabetic vs. Diabetic treated with Doxycycline p<0.05, Diabetic vs. Diabetic treated with CMT-1 (4-dedimethyiaminotetracycline) p<0.05).
(§2) Sixteen adult male sprague-Dawley rats, each weighing approximately 350 grams, were divided into four groups 0f four animals per group.

skin collagen [3] = assay: Glycosylation of skin collagen in diabetic rats, anthrone method (Example IV, FIG. 6); assay type: in vivo, Sprague-Dawley rat; conditions: 5 mg daily oral gavage, 21 days; effect p<0.05
Protocol: as §2
In addition, the entire skin was dissected from each rat. Samples containing 100mg of each skin were suspended in a Tris-HCl buffer containing 5mM CaCl2 and chromatographically-purified bacterial collagenase and incubated at 37° C. for 4 hours. Following incubation all samples were centrifugated at 35,000×G and the supernatants containing the skin collagen fragments were collected. The skin digest supernatants were analyzed for (1) carbohydrate-attached-to-collagen by the anthrone method, as described by Halhoul and Kleinberg ([…]) Anal. Biochem. 50: 337-343 and (2) total protein using the BioRad Assay, BioRad Chemical Division, Richmond, Calif.

collagenase [4] = assay: Collagenase activity in skin of diabetic rats (Example V, FIG. 8); assay type: in vivo, Sprague-Dawley rat; conditions: 5 mg daily oral gavage, 21 days; p<0.001 for normalization
Protocol: as §1
In particular, all dissection and extraction procedures were carried out at 4° C. unless otherwise indicated. For MMP analysis, the tissues were minced, weighed, extracted, and the extracts partially purified by ammonium sulfate precipitation using techniques described previously (Ramamurthy and Golub, J. Periodontal Res. 17, 455, (1983)). The extracts of the diseased tissue were then concentrated 5-fold and aliquots were incubated (a) with [^3 H-methyl] gelatin (denatured type I rat skin collagen ) at 37° C. for 4hours to measure gelatinase activity. The undigested gelatin was precipitated with trichloroacetic acid, and after centrifugation, aliquots of the degradation products in the supernatants were measured in a liquid scintillation spectrometer (in addition to this lysis assay, the different molecular forms of gelatinase were assessed by zymography); (b) with [^3 H-methyl] collagen for 18 hours at 27° C. and the collagen degradation fragments in the supernatants were analyzed with a liquid scintillation spectrometer to measure collagenase activity. In addition, the radiolabeled collagen components (α chains) and degradation fragments (α^A) were assessed by a combination of SDS-polyacrylamide gel electrophoresis and fluorography as described previously (Golub et al. J. Periodontal Res. 20, 12 (1985).

gelatinase = assay: Gelatinase activity in skin of diabetic rats (Example V, FIG. 9); assay type: in vivo, Sprague-Dawley rat; conditions: 5 mg daily oral gavage, 21 days; p<0.001 for normalization
Protocol: as §1
In particular, all dissection and extraction procedures were carried out at 4° C. unless otherwise indicated. […] The extracts of the diseased tissue were then concentrated 5-fold and aliquots were incubated (a) with [^3 H-methyl] gelatin (denatured type I rat skin collagen ) at 37° C. for 4hours to measure gelatinase activity. The undigested gelatin was precipitated with trichloroacetic acid, and after centrifugation, aliquots of the degradation products in the supernatants were measured in a liquid scintillation spectrometer (in addition to this lysis assay, the different molecular forms of gelatinase were assessed by zymography); (b) with [^3 H-methyl] collagen for 18 hours at 27° C. and the collagen degradation fragments in the supernatants were analyzed with a liquid scintillation spectrometer to measure collagenase activity.

diabetic rats = conditions: Golub et al. 1990; cited from earlier work
[5] = test system: streptozotocin-diabetic rats; assay: Proteinuria: urine protein excretion in diabetic rats (Example III, FIG. 4); assay type: in vivo, rat; conditions: 4 weeks
Protocol: Example III was carried out to determine the effect of tetracycline therapy on proteinuria, a parameter of renal damage, in diabetic rats.
(§3) Streptozotocin-diabetic rats were treated by the daily oral administration of 20 mg minocycline/rat/day over a 4-week period. At the end of the protocol, 24-hour urines were collected to measure protein excretion.

[6] = test system: streptozotocin-diabetic rats; assay: Other signs of diabetes (hyperglycemia, glucosuria, polyuria) in diabetic rats (Example III); assay type: in vivo, rat
Protocol: as §3

[7] = White, Lancet 1989; cited from earlier work
collagen = conditions: diabetes in rats; Brownlee et al. 1986; cited from earlier work
[8] = Wong et al. 1984, cited from earlier work
collagenase [9] = conditions: in vitro (Golub, et al., 1991) and in vivo; cited from earlier work
serum proteins [10] = assay: Glycosylated serum protein (GSP) in diabetic rats (Example V, FIG. 7); conditions: 5 mg daily oral gavage, 21 days; vs untreated diabetics, p<0.005
Protocol: Fifty-two adult male Sprague-Dawley rats were divided into eight groups, each consisting of 5-7 animals. Diabetes was induced by I.V. administration of streptozotocin in all rats, except the non-diabetic control group (7 rats). […] All animals were weighed weekly. Following general anesthesia by halothane inhalation, blood samples were collected by cardiac puncture. Blood samples were analyzed for serum glucose and glycosylated serum protein (GSP) levels. As previously mentioned, glycosylated serum protein levels were measured using the Isolab Glyco-PROBE™ GSP (glycosylated serum protein) assay kit.

Compound: NC(=O)C1=C(O)C2(O)C(=O)C3=C(O)c4c(O)cccc4CC3CC2CC1=O (stereo not drawn) [CMT-3, 6-demethyl-6-deoxy-4-dedimethylaminotetracycline]
- mM Fructosamine/mg protein (Mean ± SE) (skin collagen [1]): 0.186 ± 0.048 mM Fructosamine/mg protein
- Reduction of glycosylation in treated diabetics (%) (skin collagen [1]): 50.7%

Compound: CC1(O)c2c(Cl)ccc(O)c2C(=O)C2=C(O)C3(O)C(=O)C(C(N)=O)=C(O)CC3CC21 (stereo not drawn) [CMT-4, 7-chloro-4-dedimethylaminotetracycline]
- mM Fructosamine/mg protein (Mean ± SE) (skin collagen [1]): 0.236 ± 0.026 mM Fructosamine/mg protein
- Reduction of glycosylation in treated diabetics (%) (skin collagen [1]): 37.4%

Compound: CC1(O)c2cccc(O)c2C(O)=C2C(=O)C3C(O)=C(C(N)=O)C(=O)CC3CC21 (stereo not drawn) [CMT-7, 12a-deoxy-4-deoxy-4-dedimethylaminotetracycline]
- mM Fructosamine/mg protein (Mean ± SE) (skin collagen [1]): 0.141 ± 0.086 mM Fructosamine/mg protein
- Reduction of glycosylation in treated diabetics (%) (skin collagen [1]): 62.6%

Compound: C[C@H]1c2cccc(O)c2C(O)=C2C(=O)[C@]3(O)C(O)=C(C(N)=O)C(=O)C[C@@H]3[C@@H](O)[C@@H]21 [CMT-8, 6α-deoxy-5-hydroxy-4-dedimethylaminodoxycycline]
- mM Fructosamine/mg protein (Mean ± SE) (skin collagen [1]): 0.118 ± 0.090 mM Fructosamine/mg protein
- Reduction of glycosylation in treated diabetics (%) (skin collagen [1]): 68.7%

Compound: C[C@H]1c2cccc(O)c2C(O)=C2C(=O)[C@]3(O)C(O)=C(C(N)=O)C(=O)[C@@H](N(C)C)[C@@H]3[C@@H](O)[C@@H]21 [Doxycycline, reference compound]
- Serum Fructosamine Concentration (serum proteins [2]; mean ± standard error, non-diabetic 1.33, untreated diabetics 3.82): 3.23 ± 0.20
- fructosamine levels in the serum proteins (serum proteins [2]; vs untreated diabetics, p<0.05): significantly (p<0.05) reduced
- fructosamine attached to serum protein (glycosylated serum protein) (serum protein): returned both of these parameters of abnormal glycosylation to essentially normal levels
- glycosylation of skin collagen (skin collagen [3]): returned both of these parameters of abnormal glycosylation to essentially normal levels
- mM Fructosamine/mg protein (Mean ± SE) (skin collagen [1]): 0.244 ± 0.050 mM Fructosamine/mg protein
- Reduction of glycosylation in treated diabetics (%) (skin collagen [1]): 35.3%
- collagenase activity in the skin (collagenase [4]): normalized
- gelatinase activity in the skin (gelatinase): normalized
- severity of hyperglycemia (diabetic rats): does not reduce the severity of hyperglycemia in diabetic rats

Compound: CN(C)c1ccc(O)c2c1C[C@H]1C[C@H]3[C@H](N(C)C)C(O)=C(C(N)=O)C(=O)[C@@]3(O)C(O)=C1C2=O [Minocycline]
- urine protein excretion ([5]; 20 mg minocycline/rat/day oral, normal 48, untreated diabetics 280): 52 mg/24 hr
- development of proteinuria ([5]; 20 mg/rat/day oral): completely prevented the development of proteinuria
- other signs of diabetes including hyperglycemia, glucosuria and polyuria [6]: Neither treatment with minocycline nor CMT-1 reduced the other signs of diabetes
- effectiveness in dystrophic epidermolysis bullosa [7]: effective in treating dystrophic epidermolysis bullosa

Compound: N=C(N)NN [aminoguanidine]
- inhibition of nonenzymatic glucose-derived collagen crosslinking (collagen): effective inhibitor

Compound: CC(C)Cc1ccc(C(C)C(=O)O)cc1 (stereo not drawn) [ibuprofen]
- reduction of resulting inflammation in acne vulgaris ([8]; combination study with tetracycline): useful in reducing the resulting inflammation

Compound: CN(C)C1C(=O)C(C(N)=O)=C(O)C2(O)C(=O)C3=C(O)c4c(O)cccc4C(C)(O)C3CC12 (stereo not drawn) [tetracycline]
- effectiveness against acne vulgaris ([8]; combination study with ibuprofen): effective agent against acne vulgaris

Compound: tetracycline pyrazole [CMT-5]
- mM Fructosamine/mg protein (Mean ± SE) (skin collagen [1]): 0.121 ± 0.050 mM Fructosamine/mg protein
- Reduction of glycosylation in treated diabetics (%) (skin collagen [1]): 69.9%
- collagenase activity in the skin (collagenase [4]): normalized by all treatment groups (p<0.001) with the exception of CMT 5
- gelatinase activity in the skin (gelatinase): normalized by all treatment groups (p<0.001) with the exception of CMT 5
- anticollagenase properties (collagenase [9]): lost its anticollagenase properties
- GSP levels (serum proteins [10]): substantially lower
